The nature of data set [1]: AUClast in FVB mouse plasma at 10 mg/kg, po qd. Type of data set: ADME, organism-based. Set-up: time 0 - last, dose 10 mg/kg, route oral.
A short description of data set [2]: Cmax in FVB mouse plasma at 10 mg/kg, po qd. The class given is ADME, organism-based. Set-up: dose 10 mg/kg, route oral.
A further data set is described as follows: cells. The class given is cell-based. Conditions: Mus musculus, N2a-cl3, 120 h.
A short description of data set [3]: Inhibition of RML prion protein infected in mouse dividing ScN2a-cl3 cells expressing full length mouse PrP assessed as reduction of PrPsc level after 5 days by Western blotting analysis. Type of data set: cell-based. Conditions: N2a-cl3, 120 h. (In western blotting, separated proteins are transferred to a membrane and probed.)
Data set [4] can be described thus: Ratio of AUClast in FVB mouse brain to FVB mouse plasma. The class given is ADME. The following applies: read-out: Ratio AUC.
Data set [5] is described as follows: AUClast in FVB mouse brain at 10 mg/kg, po qd. Type of data set: ADME, organism-based. Details: time 0 - last, dose 10 mg/kg, route oral.
A further data set in a line: in vitro. Conditions: mouse, dividing ScN2a-cl3 cells.
Data set [6] relates to N2a-cl3. Briefly: Inhibition of RML prion protein infected in mouse dividing ScN2a-cl3 cells expressing full length mouse PrP assessed as reduction of PrPsc level at 10 uM after 5 days by ELISA. The class given is cell-based. On the technique in general: An ELISA detects its analyte on a solid surface through an enzyme-linked reagent.
In data set [7] the test system is N2a-cl3. Put plainly: Inhibition of RML prion protein infected in mouse stationary-phase ScN2a-cl3 cells expressing full length mouse PrP assessed as reduction of PrPsc level at 10 uM after 5 days by ELISA. The class given is cell-based.
A short description of data set [8]: Cytotoxicity against mouse stationary-phase ScN2a-cl3 cells assessed as cell viability after 5 days by calcein-AM staining-based fluorescence assay. Set-up: species or system N2a-cl3. Conditions: read-out: LC50.
Data set [9] can be described thus: Inhibition of RML prion protein infected in mouse stationary-phase ScN2a-cl3 cells expressing full length mouse PrP assessed as reduction of PrPsc level after 5 days. Type of data set: cell-based. The following applies: N2a-cl3, 120 h.

In the case of `N#Cc1sc2nc(-c3ccc4c(c3)OCO4)ccc2c1N`, the AUC(0-t) (usually the area under the concentration-time curve up to a stated or last time point) in data set [1] came to 1.56 µM·h; in [5] it was 7.36 µM·h. Besides, in data set [2], the Cmax (commonly the highest concentration seen after dosing) is 130 nM. The EC50 (as a rule, the concentration giving half of the maximal effect) in “cells” was found to be 980 nM; in data set [3], 520 nM. Besides, the Kp in data set [4] worked out at 4.72.
On to `Nc1c(/N=N/c2ccc(-c3ccc(/N=N/c4cc(S(=O)(=O)O)c5ccccc5c4N)cc3)cc2)cc(S(=O)(=O)O)c2ccccc12` [CONGO RED], for which the EC50 in “cells” was 450 nM. The CC50 at 120 h in the data set “in vitro” was > 10000 nM.
For `Cc1ccc2[nH]c3c(c2c1)CCCC3NCCCN(C)C` (centres undefined), the inhibition – broadly, the change of the read-out against control, counted positive when it falls – in the data set on N2a-cl3 [6] turned out to be 88%; in the data set on N2a-cl3 [7], 94%. Also, the EC50 in “cells” is 1580 nM; in data set [9], 7500 nM. For the same molecule, the CC50 at 120 h (in the data set “in vitro”; in data set [8]) was > 10000 nM in each case.
`COc1ccc(CNC(=O)c2sc3nc(-c4cccs4)ccc3c2N)cc1`: the EC50 in the data set “cells” came to 1830 nM. Moreover, the CC50 at 120 h in the data set “in vitro” was > 10000 nM.
With `COc1ccc(-c2ccc3c(N)c(C(=O)Nc4ccc(F)cc4)sc3n2)cc1`, the EC50 in the data set “cells” came to 140 nM. Further, the CC50 at 120 h in “in vitro” was > 10000 nM.
`COc1ccc(-c2ccc3c(N)c(C(=O)Nc4ccc(F)cc4)sc3n2)cc1OC`: the EC50 in “cells” was 240 nM. Moreover, in “in vitro”, the CC50 at 120 h was > 10000 nM.
Taken in the same sequence, the figures for `CC(=O)c1ccc(NC(=O)c2sc3nc(-c4cccs4)ccc3c2N)cc1` were 100 nM and > 10000 nM.
In the same order, the values of `CCOc1ccc(/N=N/c2ccc(N)cc2N)cc1` [ETHOXAZENE] are 4760 nM and > 10000 nM.
Taken in the same sequence, the figures for `COc1ccc2cc1Oc1ccc(cc1)C[C@H]1c3cc(c(OC)cc3CCN1C)Oc1c(OC)c(OC)cc3c1[C@H](C2)N(C)CC3` [FANCHININ] were 2150 nM and 5010 nM.
As for `COc1ccc(-c2ccc3c(N)c(C(=O)Nc4cc(F)ccc4F)sc3n2)cc1`, in “cells”, the EC50 was > 10000 nM. Besides, the CC50 at 120 h in the data set “in vitro” was > 10000 nM.
Take `COc1ccc2cc3c(N)c(C(=O)Nc4ccc(C(C)=O)cc4)sc3nc2c1`: the EC50 stood at 80 nM in “cells” and 60 nM in data set [3]. Moreover, the CC50 at 120 h in the data set “in vitro” was > 10000 nM.
`CC(=O)c1ccc(NC(=O)c2sc3nc4c(cc3c2N)CCCC4)cc1`: the EC50 in the data set “cells” was > 10000 nM. In addition, in “in vitro”, the CC50 at 120 h is > 10000 nM.
For `CN1C[C@H](C(=O)N[C@]2(C)O[C@@]3(O)[C@@H]4CCCN4C(=O)[C@H](Cc4ccccc4)N3C2=O)C[C@@H]2c3cccc4[nH]cc(c34)C[C@H]21` [DIHYDROERGOTAMINE], in “cells”, the EC50 amounted to 6440 nM. The CC50 at 120 h in “in vitro” is > 10000 nM.
`CN1CCN(c2ccc(Nc3ccnc4cc(Cl)ccc34)cc2)CC1`: the AUC(0-t) is 0.82 µM·h in data set [1] and 2.12 µM·h in data set [5]. In data set [2], this molecule showed a Cmax of 410 nM. For the same molecule, the EC50 was 1360 nM in “cells” and 2070 nM in data set [3]. Moreover, in [4], the Kp came to 2.59.
Consider `Nc1c(C(=O)Nc2cc(F)ccc2F)sc2nc(-c3ccncc3)ccc12`, for which the EC50 in “cells” is 2220 nM. For the same molecule, the CC50 at 120 h in the data set “in vitro” was > 10000 nM.
In the same order, the values of `CN1CCc2cccc3c2[C@H]1Cc1ccc(O)c(O)c1-3` [APOMORPHINE] are > 10000 nM and > 10000 nM.
On to `Nc1c(C(=O)Nc2ccc(F)cc2)sc2nc(-c3ccc4c(c3)OCO4)ccc12`, for which the EC50 in the data set “cells” stood at 750 nM. In addition, the CC50 at 120 h in the data set “in vitro” was > 10000 nM.
Taken in the same sequence, the figures for `COc1ccc(CCNC(=O)c2sc3nc(-c4cccs4)ccc3c2N)cc1OC` were > 10000 nM and > 10000 nM.

(Values after ChEMBL document CHEMBL3091297, “Antiprion compounds that reduce PrP(Sc) levels in dividing and stationary-phase cells” (Bioorg Med Chem, 2013).)
